Each structure is given as a SMILES string.

A short description of this data set: RP, Waters ACQUITY Premier BEH C18, 100 × 2.1 mm, 1.7 µm, 40 °C, 0.3 to 0.4 mL/min, estimated dead time 0.73 min; A: water + 0.1% formic acid; B: acetonitrile + 0.1% formic acid; gradient (min/%B) 0/0.5 0.1/0.5 10/80 10.1/99.5 12/0.5 12.1/0.5 14.5/0.5. As to conditions: stereoisomer not certain.
Regarding `O=C(O)C1OC(Oc2cc3oc(-c4ccccc4)cc(=O)c3c(O)c2O)C(O)C(O)C1O` (configuration not stated) [BAICALIN], the LC retention time is 5.17 min.

In the case of `NCC(O)c1ccc(O)c(O)c1` (configuration not stated) [NORADRENALINE], the LC retention time was 0.887 min.

For `CC(=O)C(C)O` (configuration not stated) [ACETOIN], the LC retention time was 3.5 min.

With `Cc1cn(C2CC(O)C(COP(=O)(O)O)O2)c(=O)[nH]c1=O` (configuration not stated) [THYMIDINE-MONOPHOSPHATE], the LC retention time was 2.73 min.

`O=C(OC1Cc2c(O)cc(O)cc2OC1c1cc(O)c(O)c(O)c1)c1cc(O)c(O)c(O)c1` (single isomer, unassigned; (-)) [(-)-EPIGALLOCATECHIN-3-GALLATE]: the LC retention time was 3.98 min.

As to `CNCC(O)c1ccc(O)cc1` [D-SYNEPHRINE], the LC retention time is 0.927 min.

With `Cc1cc2nc3c(=O)[nH]c(=O)nc-3n(CC(O)C(O)C(O)COP(=O)(O)OP(=O)(O)OCC3OC(n4cnc5c(N)ncnc54)C(O)C3O)c2cc1C` (configuration not stated) [FAD], the LC retention time is 4.15 min.

As to `O=c1c(-c2ccc(O)cc2)coc2cc(O)cc(O)c12` [GENISTEIN], the LC retention time was 6.07 min.

As to `CC12CCC(=O)C=C1CCC1C2C(O)CC2(C)C(C(=O)CO)CCC12` (configuration not stated) [CORTICOSTERONE], the LC retention time is 6.67 min.

As to `CCCCCCCCCCCCCCCCCC(=O)O` [STEARATE], the LC retention time is 11 min.

Regarding `O=C(O)c1cc(O)c(O)c(O)c1` [GALLIC ACID], the LC retention time was 1.34 min.

With `O=C(O)C=Cc1cccc(O)c1` [M-COUMARIC ACID], the LC retention time was 4.77 min.

`O=c1c(O)c(-c2ccc(O)c(O)c2)oc2cc(O)cc(O)c12` [QUERCETIN]: the LC retention time is 5.6 min.

As to `CC(=O)Oc1cccc(O)c1` [RESORCINOL MONOACETATE], the LC retention time was 5.71 min.

As for `Nc1c(O)cccc1C(=O)CC(N)C(=O)O` (configuration not stated) [HYDROXYKYNURENINE], the LC retention time is 2.07 min.

Turning to `COC(=O)c1ccc(O)cc1` [METHYLPARABEN], the LC retention time was 5.79 min.

Consider `NC(=O)c1ccc[n+](C2OC(COP(=O)(O)OP(=O)(O)OCC3OC(n4cnc5c(N)ncnc54)C(O)C3O)C(O)C2O)c1` (stereo not drawn) [BETA-NICOTINAMIDE ADENINE DINUCLEOTIDE], for which the LC retention time was 2.13 min.

For `Cn1c(=O)[nH]c2[nH]c(=O)n(C)c2c1=O` [1,7-DIMETHYLURIC ACID], the LC retention time was 2.39 min.

Turning to `NC(CCOC(=O)CCC(=O)O)C(=O)O` (configuration not stated) [O-SUCCINYL-HOMOSERINE], the LC retention time is 1.68 min.

Turning to `O=C(O)CCCCCCCCCCCO` [OMEGA-HYDROXYDODECANOATE], the LC retention time is 6.99 min.

In the case of `NC(=O)[C@@H](N)Cc1c[nH]c2ccccc12` [L-TRYPTOPHANAMIDE], the LC retention time was 3.9 min.

For the compound `CCCCCCCCCCCC=CCCCCC(=O)O` [PETROSELINATE], the LC retention time was 10 min.

Take `O=C(O)C=Cc1c[nH]c2ccccc12` [INDOLEACRYLIC ACID]: the LC retention time is 5.61 min.

For `CC(O)CC(=O)O` (configuration not stated) [3-HYDROXYBUTANOATE], the LC retention time was 4.45 min.

Consider `O=CC(O)C(O)C(O)C(O)CO` (stereo not drawn) [ISTD_ D(+)-GLUCOSE-13C6], for which the LC retention time is 0.888 min.

Consider `O=C(O)Cc1cccc(O)c1` [3-HYDROXYPHENYLACETATE], for which the LC retention time is 3.54 min.

For `COc1cc(CCC(=O)O)ccc1O` [DIHYDROFERULIC ACID], the LC retention time is 5.08 min.

As for `NCCc1cc(O)c(O)cc1O` [6-HYDROXYDOPAMINE], the LC retention time was 1.31 min.

Regarding `O=CNCC(=O)O` [N-FORMYLGLYCINE], the LC retention time is 0.962 min.

Take `COc1c(O)cc2oc(-c3ccc(O)cc3)cc(=O)c2c1O` [5,7-DIHYDROXY-2-(4-HYDROXYPHENYL)-6-METHOXY-4H-CHROMEN-4-ONE]: the LC retention time was 6.08 min.

As for `N[C@@H](Cc1cc(I)c(Oc2ccc(O)cc2)c(I)c1)C(=O)O` [3,5-DIIODO-L-THYRONINE], the LC retention time was 5.64 min.

As for `O=C1CCCCO1` [5-VALEROLACTONE], the LC retention time was 4.9 min.

With `CCCCCCCCCC(=O)OC(CC(=O)[O-])C[N+](C)(C)C` (configuration not stated) [DECANOYLCARNITINE], the LC retention time is 6.92 min.

`NC(=O)c1ncn(C2OC(COP(=O)(O)O)C(O)C2O)c1N` (configuration not stated) [AICAR]: the LC retention time is 1.28 min.

In the case of `O=C(C=Cc1ccc(O)c(O)c1)OC1C(O)CC(O)(C(=O)O)CC1O` (configuration not stated) [CRYPTOCHLOROGENIC ACID], the LC retention time is 3.67 min.

For `NC(=O)CCC(NC(=O)Cc1ccccc1)C(=O)O` (configuration not stated) [PHENYLACETYLGLUTAMINE], the LC retention time is 3.9 min.

With `CCCC(=O)OC(CC(=O)[O-])C[N+](C)(C)C` (configuration not stated) [BUTYRYLCARNITINE], the LC retention time was 3.89 min.

For the compound `O=[N+]([O-])c1ccc(O)cc1O` [2,4-DIHYDROXY-NITROPHENOL], the LC retention time is 6.02 min.

In the case of `Nc1nc2c(ncn2C2CC(O)C(CO)O2)c(=O)[nH]1` (configuration not stated) [DEOXYGUANOSINE], the LC retention time was 3.39 min.

On to `C=C(C)C1Cc2c(ccc3c2OC2COc4cc(OC)c(OC)cc4C2C3=O)O1` (configuration not stated) [ROTENONE], for which the LC retention time was 7.55 min.

Regarding `OCC1OC(OCC2OC(OCC3OC(OC4(CO)OC(CO)C(O)C4O)C(O)C(O)C3O)C(O)C(O)C2O)C(O)C(O)C1O` (configuration not stated) [STACHYOSE], the LC retention time was 0.921 min.

For `Nc1ccccc1O` [2-AMINOPHENOL], the LC retention time was 1.62 min.

With `Nc1ncnc2c1ncn2C1OC(COP(=O)(O)O)C(O)C1O` (configuration not stated) [ADENOSINE-MONOPHOSPHATE], the LC retention time is 1.35 min.

As for `O=C(O)C(O)Cc1ccc(O)cc1` (configuration not stated) [HYDROXYPHENYLLACTATE], the LC retention time is 4.05 min.

In the case of `OCC(O)c1ccc(O)c(O)c1` (configuration not stated) [3,4-DIHYDROXYPHENYLGLYCOL], the LC retention time is 1.86 min.

For the compound `O=c1c(OC2OC(CO)C(O)C(O)C2O)c(-c2ccc(O)c(O)c2)oc2cc(O)cc(O)c12` (configuration not stated) [QUERCETIN 3-GALACTOSIDE], the LC retention time is 4.41 min.

In the case of `Cc1cc2nc3[nH]c(=O)[nH]c(=O)c3nc2cc1C` [LUMICHROME], the LC retention time is 5.49 min.

On to `O=c1cc(-c2ccc(O)c(O)c2)oc2cc(O)cc(O)c12` [LUTEOLIN], for which the LC retention time is 5.54 min.

In the case of `O=C(O)CCCCCCCCC(=O)O` [SEBACATE], the LC retention time was 6.03 min.

With `O=C(O)c1c(O)cccc1O` [2,6-DIHYDROXYBENZOIC ACID], the LC retention time was 4.5 min.

Regarding `COc1c(O)cc2oc3cc(O)c(CC=C(C)C)c(O)c3c(=O)c2c1CC=C(C)C` [ALPHA-MANGOSTIN], the LC retention time was 8.32 min.

`COC(=O)CCCC(=O)O` [MONOMETHYLGLUTARATE]: the LC retention time is 3.95 min.

Turning to `c1ncc2[nH]cnc2n1` [PURINE], the LC retention time was 2.2 min.

As to `CCCCCCCCCCCCCCC(O)C(=O)O` (configuration not stated) [2-HYDROXYHEXADECANOIC ACID], the LC retention time was 8.98 min.

Consider `CC=C1C(OC2OC(CO)C(O)C(O)C2O)OC=C(C(=O)OC)C1CC(=O)OCCc1ccc(O)c(O)c1` (configuration not stated) [OLEUROPEIN], for which the LC retention time is 5.05 min.

`CCNC(=O)CC[C@H](N)C(=O)O` [L-THEANINE]: the LC retention time is 0.897 min.

Take `CC(=O)NCCc1c[nH]c2ccc(O)cc12` [N-ACETYLSEROTONIN]: the LC retention time was 4.42 min.

`COc1ccc2[nH]cc(CCNC(C)=O)c2c1` [MELATONIN]: the LC retention time is 5.57 min.

As for `COC(=O)CCC(=O)OC` [DIMETHYL SUCCINATE], the LC retention time was 3.97 min.

On to `CC(CC(=O)CC(C)C1CC(O)C2(C)C3=C(C(=O)CC12C)C1(C)CCC(=O)C(C)(C)C1CC3O)C(=O)O` (configuration not stated) [GANODERIC ACID A], for which the LC retention time was 6.82 min.

For `CC(CCC(=O)O)C1CCC2C3CCC4CC(O)CCC4(C)C3CCC12C` (configuration not stated) [LITHOCHOLATE], the LC retention time is 8.27 min.

On to `Cc1nccc2c1[nH]c1ccccc12` [HARMAN], for which the LC retention time was 4.24 min.

With `NC(=O)CCCCC1CCSS1` (configuration not stated) [LIPOAMIDE], the LC retention time was 5.5 min.

With `O=c1[nH]cnc2c1ncn2C1OC(CO)C(O)C1O` (configuration not stated) [INOSINE], the LC retention time was 3.37 min.

Take `Cc1ccc(C(C)C)c(O)c1` [THYMOL]: the LC retention time was 5.78 min.

For `CCC(=O)OC(CC(=O)[O-])C[N+](C)(C)C` (configuration not stated) [PROPIONYLCARNITINE], the LC retention time is 0.894 min.

Take `O=C(O)CNC(=O)c1ccc(O)cc1` [4-HYDROXYHIPPURIC ACID]: the LC retention time was 2.42 min.

For the compound `O=C(O)CCCCCCCCCO` [10-HYDROXYDECANOATE], the LC retention time is 6.11 min.

Take `CC(CCC(=O)NCC(=O)O)C1CCC2C3CCC4CC(O)CCC4(C)C3CC(O)C12C` (configuration not stated) [DEOXYCHOLIC ACID GLYCINE CONJUGATE]: the LC retention time was 7.24 min.

Turning to `CC(CCC(=O)O)C1CCC2C3C(=O)CC4CC(O)CCC4(C)C3CC(O)C12C` (configuration not stated) [7-KETODEOXYCHOLATE], the LC retention time is 6.88 min.

Consider `CCCc1oc(CCC(=O)O)c(C(=O)O)c1C` [3-CARBOXY-4-METHYL-5-PROPYL-2-FURANPROPIONIC ACID], for which the LC retention time was 6.56 min.

For `NC(CCCC(=O)O)C(=O)O` (configuration not stated) [AMINOADIPATE], the LC retention time was 0.943 min.

Turning to `NC(=O)c1ccc[n+](C2OC(COP(=O)(O)OP(=O)(O)OCC3OC(n4cnc5c(=O)[nH]cnc54)C(O)C3O)C(O)C2O)c1` (configuration not stated) [NICOTINAMIDE HYPOXANTHINE DINUCLEOTIDE], the LC retention time was 2.02 min.

With `CC(=O)NC(CS)C(=O)O` (configuration not stated) [N-ACETYLCYSTEINE], the LC retention time was 4 min.

Turning to `COc1ccccc1C=CC=O` [CASSIASTEAROPTENE], the LC retention time is 7.94 min.

Take `Nc1ncnc2c1ncn2C1OC(COP(=O)(O)OS(=O)(=O)O)C(O)C1O` (configuration not stated) [ADENOSINE PHOSPHOSULFATE]: the LC retention time is 1.22 min.

Consider `Cc1cc2nc3c(=O)[nH]c(=O)nc-3n(CC(O)C(O)C(O)COP(=O)(O)O)c2cc1C` (configuration not stated) [FLAVIN MONONUCLEOTIDE], for which the LC retention time was 3.73 min.

The record behind these values is the RepoRT retention time repository.
